Measurements published in PMC9749988 (PLOS ONE, 2022).
Like-named read-outs stand apart in the source and are kept apart here.

Assays:
A1R = target: T1, A1R (Mus musculus, UniProt Q60612); assay type: binding; conditions: mean ± SEM, read-out: DPCPX equilibrium dissociation constant (KD)
T1 construct: To obtain the P1 fraction, cerebral cortex and spinal cord were homogenized in chilled sucrose; from tissue; host or cells: cerebral cortex and spinal cord membranes (P1 fraction) of SOD1-G93A transgenic and WT B6SJL mice
T1 sequence (Q60612 1-326): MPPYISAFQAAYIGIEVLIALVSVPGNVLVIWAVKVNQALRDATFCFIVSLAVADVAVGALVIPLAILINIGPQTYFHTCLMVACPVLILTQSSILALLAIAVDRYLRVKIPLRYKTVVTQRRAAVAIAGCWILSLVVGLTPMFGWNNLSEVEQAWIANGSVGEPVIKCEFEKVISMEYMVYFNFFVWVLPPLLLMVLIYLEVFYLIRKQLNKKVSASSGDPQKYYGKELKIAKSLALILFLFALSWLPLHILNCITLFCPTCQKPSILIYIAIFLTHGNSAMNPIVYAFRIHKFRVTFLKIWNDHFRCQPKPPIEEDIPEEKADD
Protocol: The radioligand-binding experiments were performed as previously described with membrane fractions (total membranes, P1 fraction). To obtain the P1 fraction, cerebral cortex and spinal cord were homogenized in chilled sucrose (pH 7.6), centrifuged at 3000 g, the pellet discarded, and the supernatant centrifuged at 14000 g (P1 fraction). The P1 fraction was then resuspended in sucrose (pH 7.6). Protein quantification was done with DC™ Protein Assay kit (Bio-Rad Laboratories, CA, USA), with bovine serum albumin (BSA) as the reference standard. […] Non-specific binding was measured in the presence of 2 μM of Xanthine Amine Congener (XAC, Tocris Bioscience, Bristol, United Kingdom), and the resulting values were subtracted from those obtained with [^3H]DPCPX to determine the specific binding and normalized for protein concentration. Results are expressed as femtomole per mg of total protein (fmol/mg).

[1] = Changes in animal body weight during chronic caffeine treatment (AUC of weight change); assay type: in vivo, mouse; conditions: for Area under the curve (AUC) of change in body weight: caffeine 0.3mg/ml in drinking water from 11th to 16-18th week of age, weight change vs first day of administration (PND 72), mean ± SEM; for Weight gain compared to vehicle treatment: caffeine 0.3mg/ml in drinking water
Protocol: (§1) During the experimental period, animals had ad libitum access to water, independently of treatment group. […] After 5–7 weeks of treatment, mice were sacrificed, cortex and spinal cord samples were removed and snap frozen in liquid nitrogen. All samples were kept at -80°C for posterior analysis.
Animal body weight was monitored throughout the chronic drug administration experiments, with animals being weighed once every 2 to 3 days. We used weight changes a proxy of the disease state, as it was described that SOD1^G93A mice show a gradual loss of weight through time, and that these correlate with other disease states indicators. We decided not to use behavioral data (eg RotaRod performance) to avoid changes in protein levels or expression due to physical exercise, which would have even more impact in SOD1^G93A mice than in WT, thus introducing an additional variable and therefore making comparisons more difficult.
Because SOD1^G93A tend to generally weight less than their WT counterparts, group comparisons of absolute weight were deemed inadequate. As such, changes in the body weight of each animal were calculated by subtracting the weight of that animal on the first day of drug administration (72nd day of life) to its weight at each subsequent time-point, with results being expressed in grams. To facilitate comparison of treatment effects, the area under the curve (AUC) of these changes in weight was obtained.

VEGFA = VEGFA protein levels by ELISA after chronic caffeine treatment; assay type: in vivo, mouse; conditions: for VEGFA protein levels: caffeine 0.3mg/ml in drinking water from 11 weeks, mean ± SEM
Protocol: (§2) Cortex and spinal cord samples were homogenized in […] (RIPA) lysis buffer (1M Tris pH 8.0, 0.5M EDTA pH 8.0, 5M NaCl, 10% NP-40, 50% Glycerol), supplemented with cOmpleteTM Mini protease inhibitor cocktail tablets (Roche, Penzberg, Germany) and centrifuged. Protein quantification was performed using the DC™ Protein Assay kit (Bio-Rad Laboratories, Hercules, CA, USA). VEGFA, VEGFR-1 and VEGFR-2 protein levels were quantified with the DuoSet® ELISA Development System Kit (R&D Systems, Abingdon, UK), according to manufacturer instructions. Assessment of VEGFB protein levels was performed with the Mouse VEGFB ELISA Kit (Thermo Scientific, Massachusetts, USA), also according to manufacturer instructions. […] To improve BDNF detection, samples were acidified with HCl 1M, until reaching approximately pH 2.6. After 10 to 20 minutes, NaOH was added to neutralize the samples to pH 7.6. Absorbances were read in a microplate reader (Microplate Reader TECAN Infinite M200, Männedorf, Switzerland) at 450nm and 540nm, with the latter being subtracted to the former with the goal of correcting for differences in plate background. Results are expressed as picograms per milligram of total protein (pg/mg).
as §1

VEGFB = VEGFB protein levels by ELISA after chronic caffeine treatment; assay type: in vivo, mouse; conditions: caffeine 0.3mg/ml in drinking water from 11 weeks, mean ± SEM
Protocol: as §2, §1

VEGFR-1 = VEGFR-1 protein levels by ELISA after chronic caffeine treatment; assay type: in vivo, mouse; conditions: caffeine 0.3mg/ml in drinking water from 11 weeks, mean ± SEM
Protocol: as §2, §1

VEGFR-2 = VEGFR-2 protein levels by ELISA after chronic caffeine treatment; assay type: in vivo, mouse; conditions: caffeine 0.3mg/ml in drinking water from 11 weeks, mean ± SEM
Protocol: as §2
After 5–7 weeks of treatment, mice were sacrificed, cortex and spinal cord samples were removed and snap frozen in liquid nitrogen. All samples were kept at -80°C for posterior analysis.

BDNF = BDNF protein levels by ELISA after chronic caffeine treatment; assay type: in vivo, mouse; conditions: caffeine 0.3mg/ml in drinking water from 11 weeks, mean ± SEM
Protocol: as §2, §1

[2] = Water intake during chronic caffeine treatment; assay type: in vivo; conditions: WT and SOD1^G93A mice; tap water or caffeine (0.3mg/ml); approximately 5–6 mL per day per mouse
Protocol: as §1

SOD1^G93A mice [3] = conditions: caffeine 0.3mg/ml in drinking water from 11th week of age
SOD1^G93A mice [4] = conditions: cited from earlier work

## CCCn1c(=O)c2[nH]c(C3CCCC3)nc2n(CCC)c1=O [DPCPX, [^3H]-8-Cyclopentyl-1,3-dipropylxanyine]
A1R; cortex, WT mice age-matched to pre-symptomatic (4–6 weeks old)
  Kd: 3.1 ± 1.55 nM
A1R; cortex, WT mice age-matched to symptomatic (12–14 weeks old)
  Kd: 7.98 ± 1.01 nM
A1R; cortex, pre-symptomatic SOD1^G93A mice (4–6 weeks old)
  Kd: 4.97 ± 1.07 nM
A1R; cortex, symptomatic SOD1^G93A mice (12–14 weeks old)
  Kd: 4.43 ± 0.821 nM
A1R; spinal cord, WT mice age-matched to pre-symptomatic (4–6 weeks old)
  Kd: 15 ± 3.83 nM
A1R; spinal cord, WT mice age-matched to symptomatic (12–14 weeks old)
  Kd: 4.32 ± 0.924 nM
A1R; spinal cord, pre-symptomatic SOD1^G93A mice (4–6 weeks old)
  Kd: 12 ± 4.55 nM
A1R; spinal cord, symptomatic SOD1^G93A mice (12–14 weeks old)
  Kd: 11.1 ± 3.47 nM

## Cn1c(=O)c2c(ncn2C)n(C)c1=O [caffeine]
[1]; SOD1^G93A mice, SOD-VEH 12.90 ± 3.033
  Area under the curve (AUC) of change in body weight: 22.70 ±3.795
[1]; SOD1^G93A mice, not statistically significant (p = 0.058)
  Weight gain compared to vehicle treatment: trend towards an increase in weight gain
[1]; WT mice, WT-VEH 71.20 ± 2.011
  Area under the curve (AUC) of change in body weight: 83.40 ± 4.743
[1]; WT mice, p = 0.039
  Weight gain compared to vehicle treatment: small but statistically significant increase in weight gain
VEGFA; cortex, WT and SOD1^G93A mice 16–18 weeks old, caffeine 0.3mg/ml in drinking water
  Effect of caffeine upon VEGFA protein levels: absence of effect
VEGFA; cortex, WT mice 16–18 weeks old, WT-VEH 3.62
  VEGFA protein levels: 2.05 ± 0.324 pg/mg protein
VEGFA; spinal cord, SOD1^G93A mice 16–18 weeks old, SOD-VEH 4.151 ± 0.820
  VEGFA protein levels: 3.743 ± 1.018 pg/mg protein
VEGFA; spinal cord, WT mice 16–18 weeks old, WT-VEH 2.798
  VEGFA protein levels: 3.774 ± 0.451 pg/mg protein
VEGFB; cortex, SOD1^G93A mice 16–18 weeks old, SOD-VEH 164.7 ± 10.79
  VEGFB protein levels: 157.8 ± 13.94 pg/mg protein
VEGFB; cortex, WT mice 16–18 weeks old, WT-VEH 166.8 ± 20.91
  VEGFB protein levels: 170.7 ± 33.07 pg/mg protein
VEGFB; spinal cord, SOD1^G93A mice 16–18 weeks old, SOD-VEH 545.6 ± 35.13
  VEGFB protein levels: 545.3 ± 55.72 pg/mg protein
VEGFB; spinal cord, WT mice 16–18 weeks old, WT-VEH 366.0 ± 64.68
  VEGFB protein levels: 366.5 ± 90.97 pg/mg protein
VEGFR-1; cortex, SOD1^G93A mice 16–18 weeks old, SOD-VEH 905.1 ± 30.64
  VEGFR-1 protein levels: 926.5 ± 89.92 pg/mg protein
VEGFR-1; cortex, WT mice 16–18 weeks old, WT-VEH 1078 ± 90.79
  VEGFR-1 protein levels: 1004 ± 146.9 pg/mg protein
VEGFR-1; spinal cord, SOD1^G93A mice 16–18 weeks old, SOD-VEH 919.3 ± 50.34
  VEGFR-1 protein levels: 1048 ± 115.2 pg/mg protein
VEGFR-2; cortex, SOD1^G93A mice 16–18 weeks old, SOD-VEH 45.41 ± 5.938
  VEGFR-2 protein levels: 50.51 ± 6.925 pg/mg protein
VEGFR-2; cortex, WT mice 16–18 weeks old, WT-VEH 45.14 ± 4.019
  VEGFR-2 protein levels: 39.02 ± 4.077 pg/mg protein
VEGFR-2; spinal cord, WT mice 16–18 weeks old, WT-VEH 108 ± 32.5
  VEGFR-2 protein levels: 121 ± 40.6 pg/mg protein
BDNF; cortex, SOD1^G93A mice 16–18 weeks old, SOD-VEH 29.75 ± 4.560, p = 0.042
  BDNF protein levels: 13.85 ± 2.372 pg/mg protein
BDNF; cortex, WT mice 16–18 weeks old, WT vehicle 20.96 ± 1.403, p = 0.020
  BDNF protein levels: 40.24 ± 6.342 pg/mg protein
BDNF; spinal cord, SOD1^G93A mice 16–18 weeks old, SOD-VEH 19.34, p = 0.038, high variability
  BDNF protein levels: 49.10 ± 10.82 pg/mg protein
BDNF; spinal cord, WT mice 16–18 weeks old
  BDNF protein levels: 14.37 ± 4.488 pg/mg protein
[2]
  Water intake, difference between treatment groups: No substantial differences
SOD1^G93A mice [3]
  Symptoms on visual inspection: trend to symptoms aggravation
  Time to humane endpoint (onset of hindlimb paresis) vs vehicle treated SOD1^G93A mice: slightly earlier
SOD1^G93A mice [4]
  Effect on ALS symptoms: exacerbates ALS symptoms
